Earlier results, collected in patent publication EP3003384B1 (Lamda Laboratories S.A., priority 2014, dated 2015).
Where a name gives a salt, the structure may show the parent alone.

Conditions: at room temperature

**Q.** Which soluble in water does the source give for CNCC[C@@H](Oc1ccccc1C)c1ccccc1 [atomoxetine hydrochloride] here?
**A.** 27.8 mg/mL
